Experimental findings from patent US20250154138A1, “Small Molecule IL-17A Modulators” (BeiGene, Ltd., priority 2022, published 2025) are described below.

pIC50: −log10 of the molar value.

Test [1] relates to IL-17-induced GROα secretion from HT-29 cells. Briefly: GROα release assay in human colorectal adenocarcinoma epithelial cell (HT-29, ELISA). Type of test: cell-based. The note with it: Homo sapiens, HT-29, 48 h, 10 ng/mL IL-17A, highest concentration 10 μM, read-out: Cellular assay HT29 cell/CXCL1 IC50. In a few lines:
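IC50 values come from four-parameter fits of GROα levels, quantified by ELISA (450 nm, standard curve) in supernatants. Compounds, 4-fold serially diluted from 10 μM, were mixed 15 min with IL-17A (10 ng/mL final) before 48 h incubation with HT-29 cells at 37°C.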
In general terms: An ELISA detects its analyte on a solid surface through an enzyme-linked reagent.

Test [2] deals with human IL-17A / human IL-17RA (Homo sapiens (Human), UniProt Q16552). Briefly: Human IL-17A biochemical assay (HTRF, blocking of IL-17A binding to IL-17RA). The conditions noted are these: 0.4 nM IL-17A, 0.3 nM IL-17RA, max compound concentration 10 uM. The gist of the method: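 HTRF readout (ex337, em620/665 nm ratio) after anti-6His Tb cryptate and anti-human IgG-XL665 detection, 1 h RT. Beforehand, 0.4 nM IL-17A sat with compound 3 h RT, then 0.3 nM IL-17RA 1 h. IC50 by four-parameter logistic fit.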
Sequence of human IL-17A / human IL-17RA (Q16552 24-155): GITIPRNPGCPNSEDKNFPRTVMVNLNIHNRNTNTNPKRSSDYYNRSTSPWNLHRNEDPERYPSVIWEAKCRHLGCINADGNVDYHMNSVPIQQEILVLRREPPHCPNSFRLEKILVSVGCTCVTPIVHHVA

Consider `CNC(=O)C1(N2C[C@@H](C(C)C)NC2=O)Cc2ccc(NC(=O)[C@@H](NC(=O)c3cccc(Oc4c(C)n[nH]c4C)c3)C3CCCCC3)cc2C1` (stereo partly drawn) [Example 149, 5-((S)-2-cyclohexyl-2-(3-((3,5-dimethyl-1H-pyrazol-4-yl)oxy)benzamido)acetamido)-2-((R)-4-isopropyl-2-oxoimidazolidin-1-yl)-N-methyl-2,3-dihydro-1H-indene-2-carboxamide], for which the pIC50 in test [1] was 7.35; in test [2], 7.04.

`COc1ccc(CNC(=O)C2(N3C[C@@H](C(C)C)NC3=O)Cc3ccc(NC(=O)[C@@H](NC(=O)c4ccnn4C)C4CCCCC4)cc3C2)cc1` (stereo partly drawn) [Example 150, N-((1S)-1-cyclohexyl-2-((2-((R)-4-isopropyl-2-oxoimidazolidin-1-yl)-2-((4-methoxybenzyl)carbamoyl)-2,3-dihydro-1H-inden-5-yl)amino)-2-oxoethyl)-1-methyl-1H-pyrazole-5-carboxamide]: the pIC50 in test [1] was 7.33; in test [2] it was 7.70.

With `CC(C)[C@@H]1CN(C2(C(=O)Nc3ccccc3)Cc3ccc(NC(=O)[C@@H](NC(=O)c4ccnn4C)C4CCCCC4)cc3C2)C(=O)N1` (stereo partly drawn) [Example 151, N-((1S)-1-cyclohexyl-2-((2-((R)-4-isopropyl-2-oxoimidazolidin-1-yl)-2-(phenylcarbamoyl)-2,3-dihydro-1H-inden-5-yl)amino)-2-oxoethyl)-1-methyl-1H-pyrazole-5-carboxamide], the pIC50 in test [1] was 7.00; in test [2] it was 7.51.

With `CNC(=O)C1(N2CC3(CC3)CNC2=O)Cc2ccc(NC(=O)C(NC(=O)c3ccnn3C)C3CCC(C(C)C)CC3)cc2C1` (stereo not shown) [Example 152, N-(1-(4-isopropylcyclohexyl)-2-((2-(methylcarbamoyl)-2-(6-oxo-5,7-diazaspiro[2.5]octan-5-yl)-2,3-dihydro-1H-inden-5-yl)amino)-2-oxoethyl)-1-methyl-1H-pyrazole-5-carboxamide], the pIC50 in test [1] is 7.51; in test [2], 8.00.

Turning to `CNC(=O)C1(N2CC3(CC3)CNC2=O)Cc2ccc(NC(=O)[C@@H](NC(=O)c3cccc(C#N)c3)C3CCCCC3)cc2C1` (stereo partly drawn) [Example 153, 5-((S)-2-(3-cyanobenzamido)-2-cyclohexylacetamido)-N-methyl-2-(6-oxo-5,7-diazaspiro[2.5]octan-5-yl)-2,3-dihydro-1H-indene-2-carboxamide], the results for the pIC50 in test [1] and in test [2] were 6.59 and 7.02, respectively.

Consider `CCn1nccc1C(=O)N[C@H](C(=O)Nc1ccc2c(c1)CC(C(=O)NC)(N1CC3(CC3)CNC1=O)C2)C1CCCCC1` (stereo partly drawn) [Example 154, N-((1S)-1-cyclohexyl-2-((2-(methylcarbamoyl)-2-(6-oxo-5,7-diazaspiro[2.5]octan-5-yl)-2,3-dihydro-1H-inden-5-yl)amino)-2-oxoethyl)-1-ethyl-1H-pyrazole-5-carboxamide], for which the pIC50 in test [1] is 7.15; in test [2] it was 7.55.

On to `CC(C)[C@@H]1CN(C2(C(=O)NC34CC5CC(CC(C5)C3)C4)Cc3ccc(NC(=O)[C@@H](NC(=O)c4ccnn4C)C4CCCCC4)cc3C2)C(=O)N1` (stereo partly drawn) [Example 155, N-((1S)-2-((2-(((3R,5R)-adamantan-1-yl)carbamoyl)-2-((R)-4-isopropyl-2-oxoimidazolidin-1-yl)-2,3-dihydro-1H-inden-5-yl)amino)-1-cyclohexyl-2-oxoethyl)-1-methyl-1H-pyrazole-5-carboxamide], for which the pIC50 in test [1] was 6.68; in test [2] it was 6.89.

As for `COCC1(N2CC3(CC3)CNC2=O)Cc2ccc(NC(=O)[C@@H](NC(=O)c3ccnn3C)C3CCCCC3)cc2C1` (stereo partly drawn) [Example 156, N-((1S)-1-cyclohexyl-2-((2-(methoxymethyl)-2-(6-oxo-5,7-diazaspiro[2.5]octan-5-yl)-2,3-dihydro-1H-inden-5-yl)amino)-2-oxoethyl)-1-methyl-1H-pyrazole-5-carboxamide], the pIC50 in test [1] was 6.52; in test [2], 7.17.
